The text below walks through data of patent publication US20240400584A1, “COMPOUNDS AND METHODS FOR MODULATING SPLICING” (REMIX THERAPEUTICS INC., priority 2021, published 2024).

Format in all cases: cell-based, human
Experiment [1] relates to HTT. The experiment is described as follows: Gene panel canonical junction qPCR assay, HTT CJ mRNA (Table 7). The conditions noted are these: read-out: HTT CJ mRNA decrease IC50. In a few lines: (§1)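 A673 or K562 cells treated with compound; canonical exon-junction mRNA measured by RT-qPCR with junction-spanning primers/probe, normalised to GAPDH, GUSB or PPIA and DMSO (ΔΔCt, RQ). Percentage response set from fixed ΔCt assay windows, fitted to a 4-parameter logistic; IC50 is concentration giving 50% CJ decrease.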
On the technique in general: Real-time PCR tracks product formation cycle by cycle.

Experiment [2] concerns HiBit-tagged Target C in K562 cells. The experiment is described as follows: HiBiT protein abundance assay, Target C. Conditions: HiBiT-modified K562 cells, 24 hours, luminescence. As for the experimental part:
(§2) Compounds described herein were used to screen for effects on quantitative protein abundance using a HiBit assay system (Promega). Quantitative protein abundance was determined by measuring the protein levels of HiBit-tagged protein targets expressed in cell culture via luminescence using the Nano-Glo HiBiT Lytic Detection System, which uses a split complementation assay format to reconstitute NanoBiT enzyme to generate a luminescent signal. A protein abundance assay was developed such that endogenous protein targets could be modified with the HiBiT peptide tag and their abundance could be assessed after compound treatment. Briefly, K562 cell lines containing a HiBiT-modification were treated with various compounds described herein (e.g., compounds of Formulas (I)). After treatment for 24 hours, the protein abundance of a specific target was determined by measuring luminescence.
(§3) Cells were maintained in IMDM with 10% FBS. Before the assay, cells were diluted with […] growth media (IMDM+[…] media) and were seeded in a 384-well plate at a density of 10000 cells/well (for each cell line listed in Table 8). Each compound was prepared as a 10-point 3-fold serial dilution in DMSO with the top dose at a final concentration of 10 μM in the well. Unmodified K562 cells were added at the previously specified density with DMSO to serve as an assay baseline and positive control (PC) and DMSO only with the respective modified cell lines was added to the negative control (NC) columns. Final DMSO concentration was kept at or below 0.25% o. Treated cell plates were placed in an incubator at 37° C. with […] for 24 hours. After 24 hours, 25 μL of Complete HiBit Lytic reagent was added to each well at room temperature (e.g. one plate requiring 10 mL Lytic Buffer, 100 μL LgBiT Protein, 200 μL Lytic Substrate), shaken for 5 minutes at 600 RPM, then left to sit for 10 minutes for signal to stabilize before reading on a Spark Cyto plate reader (Tecan) with a 500 ms measurement time.
(§4) To determine compound effects on protein abundance of each target in Table 9, the percent response for each respective cell line was calculated at each compound concentration as follows:
(§5) For the normalized response at each concentration, a four-parameter logistical regression was fit to the data and the response was interpolated at the […] to determine a concentration for protein abundance at 50% o (IC50) the untreated control.

For experiment [3], the system named is HTT. The experiment is described as follows: RT-qPCR splicing assay, HTT AJ/CJ mRNA. The conditions noted are these: A673 or K562 cells; for IC50: decrease in canonical junction mRNA; for AC50: increase in alternative junction mRNA. In outline:
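HTT and MYB canonical (CJ) and alternative-exon (AJ) junction transcripts quantified by one-step RT-qPCR from lysates of A673 or K562 cells treated 24 h with 11-point 3-fold dilutions (top 10 uM, ≤0.25% DMSO). Ct normalized to GAPDH, GUSB or PPIA and DMSO control (2^−ΔΔCt), expressed as % response.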

Experiment [4] deals with HiBit-tagged HTT in K562 cells. The experiment can be described thus: HiBiT protein abundance assay, HTT. Conditions: HiBiT-modified K562 cells, 24 hours, luminescence. The procedure:
as §2, §3, §4, §5
In general terms: HiBiT is a short tag that completes a luciferase, so light tracks the accessible tagged protein.

The subject of experiment [5] is HiBit-tagged MYB in K562 cells. The experiment is described as follows: HiBiT protein abundance assay, MYB. The conditions noted are these: HiBiT-modified K562 cells, 24 hours, luminescence. As for the experimental part:
as §2, §3, §4, §5

A further experiment relates to Target C. The experiment can be described thus: Gene panel canonical junction qPCR assay, Target C CJ mRNA (Table 7). The conditions noted are these: Homo sapiens, read-out: Target C CJ mRNA decrease IC50. In outline:
as §1

One may read the IC50 as the concentration that inhibits the measured activity by half. As usually defined, the AC50 is the midpoint of the concentration-response curve, whichever way the signal moves. Read a high AC50 as activity only at high concentration.

On to `c1cnn(-c2ccc3c(c2)OCc2nc(N[C@@H]4C[C@H]5CC[C@@H](C4)N5)ccc2-3)c1` [Compound 119], for which the IC50 in the experiment on HTT [1] was > 10 µM; in experiment [2], 1 to 10 µM; in the experiment with HTT [3] (24 hours), > 10 µM; in experiment [4], 0.1 to 1 µM; in experiment [5], 1 to 10 µM; with Target C it was 1 to 10 µM. The AC50 in the experiment with HTT [3] (24 hours) is > 10 µM.
Consider `CC1(C)CC(Nc2ccc3c(n2)CCOc2cc(-c4cn[nH]c4)ccc2-3)CC(C)(C)N1` [Compound 141], for which the half-inhibitory concentration (IC50) with HTT [1] (Homo sapiens) was > 10 µM; in experiment [2], 1 to 10 µM; with HTT [3] (Homo sapiens, 24 h), > 10 µM; in experiment [4], 1 to 10 µM; in experiment [5], < 0.1 µM; in the experiment on Target C it was 1 to 10 µM. Also, in the experiment on HTT [3] (Homo sapiens, 24 h), the AC50 is > 10 µM.
